Reference: patent US11034650B2, “Compounds useful for treating a Mannheimia haemolytica or Histophilus somni infection” (Intervet Inc., priority 2016, dated 2021)
Values after ≈ are worked out from the molar mass of the structure shown.

Key:
Type in all cases: cell-based
[1] = tested on: Mannheimia haemolytica MH 13065 (XB0446-6003.9, BRD field isolate); assay: MIC, broth-microdilution (CLSI VET01-A4), strain MH 13065; conditions: Mannheimia haemolytica strain MH 13065, broth-microdilution; unit assumed
Summary of the method: (§1)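 The compound was titrated in twofold steps in microdilution trays. Absence of turbidity, checked without instruments, marked the MIC at the lowest such concentration.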

[2] = tested on: Mannheimia haemolytica MH 6357 (M7/2, reference strain, cattle infection strain); assay: MIC, broth-microdilution (CLSI VET01-A4), strain MH 6357; conditions: Mannheimia haemolytica strain MH 6357, broth-microdilution; unit assumed
Summary of the method: as §1

[3] = tested on: Pasteurella multocida PM 6267 (P 2225 (L386), reference strain, mouse infection strain); assay: MIC, broth-microdilution (CLSI VET01-A4), strain PM 6267; conditions: Pasteurella multocida strain PM 6267, broth-microdilution; unit assumed
Summary of the method: as §1

[4] = tested on: Mannheimia haemolytica MH 10720 (154, BRD field isolate); assay: MIC, broth-microdilution (CLSI VET01-A4), strain MH 10720; conditions: Mannheimia haemolytica strain MH 10720, broth-microdilution; unit assumed
Summary of the method: as §1

[5] = tested on: Mannheimia haemolytica MH 13093 (XB0472-6014.1, BRD field isolate); assay: MIC, broth-microdilution (CLSI VET01-A4), strain MH 13093; conditions: Mannheimia haemolytica strain MH 13093, broth-microdilution; unit assumed
Summary of the method: as §1

[6] = tested on: Pasteurella multocida PM 12080 (IV102277-0093, BRD field isolate); assay: MIC, broth-microdilution (CLSI VET01-A4), strain PM 12080; conditions: Pasteurella multocida strain PM 12080, broth-microdilution; unit assumed
Summary of the method: as §1

[7] = tested on: Pasteurella multocida PM 6391 (ATCC 43137, reference strain); assay: MIC, broth-microdilution (CLSI VET01-A4), strain PM 6391; conditions: Pasteurella multocida strain PM 6391, broth-microdilution; unit assumed
Summary of the method: as §1

[8] = tested on: Mannheimia haemolytica MH 12587 (1071, BRD field isolate, macrolide-resistance: erm+, E+); assay: MIC, broth-microdilution (CLSI VET01-A4), strain MH 12587; conditions: Mannheimia haemolytica strain MH 12587, broth-microdilution; unit assumed
Summary of the method: as §1

[9] = tested on: Pasteurella multocida PM 10775 (080130003051, BRD field isolate); assay: MIC, broth-microdilution (CLSI VET01-A4), strain PM 10775; conditions: Pasteurella multocida strain PM 10775, broth-microdilution; unit assumed
Summary of the method: as §1

[10] = tested on: Mannheimia haemolytica MH 6374 (ATCC 33396, reference strain); assay: MIC, broth-microdilution (CLSI VET01-A4), strain MH 6374; conditions: Mannheimia haemolytica strain MH 6374, broth-microdilution; unit assumed
Summary of the method: as §1

SMILES	MIC MH 13065 [1] [µg/mL]	MIC MH 6357 [2] [µg/mL]	MIC PM 6267 [3] [µg/mL]	MIC MH 10720 [4] [µg/mL]	MIC MH 13093 [5] [µg/mL]	MIC PM 12080 [6] [µg/mL]	MIC PM 6391 [7] [µg/mL]	MIC MH 12587 [8] [µg/mL]	MIC PM 10775 [9] [µg/mL]	MIC MH 6374 [10] [µg/mL]
CSC(C)(C)[C@H](NC(=O)c1ccc(C#Cc2ccc(CNCc3cccnc3)nc2)cc1)C(=O)NO [Compound 367]	1.6 (≈ 3.18 µM)	0.8 (≈ 1.59 µM)	0.4 (≈ 0.794 µM)	0.4 (≈ 0.794 µM)	3.1 (≈ 6.16 µM)	0.2 (≈ 0.397 µM)	0.4 (≈ 0.794 µM)	3.1 (≈ 6.16 µM)	≤ 0.1	0.8 (≈ 1.59 µM)
COCCNCc1ccc(C#Cc2ccc(C(=O)N[C@H](C(=O)NO)C(C)(C)O)cc2)s1 [C.292]	0.8 (≈ 1.8 µM)	0.4 (≈ 0.898 µM)	1.6 (≈ 3.59 µM)	≤ 0.1	1.6 (≈ 3.59 µM)	0.4 (≈ 0.898 µM)	0.8 (≈ 1.8 µM)	1.6 (≈ 3.59 µM)	≤ 0.1	0.8 (≈ 1.8 µM)
CSC(C)(C)[C@H](NC(=O)c1ccc(C#Cc2ccc(CNCc3ncccn3)s2)cc1)C(=O)NO [Compound 366]	0.8 (≈ 1.57 µM)	0.8 (≈ 1.57 µM)	0.4 (≈ 0.785 µM)	0.2 (≈ 0.392 µM)	1.6 (≈ 3.14 µM)	0.2 (≈ 0.392 µM)	0.4 (≈ 0.785 µM)	1.6 (≈ 3.14 µM)	≤ 0.1	0.8 (≈ 1.57 µM)
CON=C(C)[C@H](NC(=O)c1ccc(C#Cc2ccc(CN3CCOCC3)cc2)cc1)C(=O)NO [Compound 381]	1.6 (≈ 3.44 µM)	1.6 (≈ 3.44 µM)	1.6 (≈ 3.44 µM)	0.4 (≈ 0.861 µM)	1.6 (≈ 3.44 µM)	0.2 (≈ 0.431 µM)	≤ 0.1	1.6 (≈ 3.44 µM)	0.2 (≈ 0.431 µM)	3.1 (≈ 6.67 µM)
CSC(C)(C)[C@H](NC(=O)c1ccc(C#Cc2ccc(CNCc3nccs3)s2)cc1)C(=O)NO [Compound 365]	1.6 (≈ 3.11 µM)	0.8 (≈ 1.55 µM)	0.4 (≈ 0.777 µM)	0.2 (≈ 0.389 µM)	1.6 (≈ 3.11 µM)	≤ 0.1	0.4 (≈ 0.777 µM)	3.1 (≈ 6.02 µM)	≤ 0.1	0.8 (≈ 1.55 µM)
CC[C@H](C)[C@H](NC(=O)c1ccc(C#Cc2ccc(CNC3CCCCC3)cc2)cc1)C(=O)NO [Compound 195]	6.3 (≈ 13.6 µM)	6.3 (≈ 13.6 µM)	0.2 (≈ 0.433 µM)	1.6 (≈ 3.47 µM)	12.5 (≈ 27.1 µM)	0.4 (≈ 0.867 µM)	0.8 (≈ 1.73 µM)	12.5 (≈ 27.1 µM)	≤ 0.1	12.5 (≈ 27.1 µM)
COCCCNCc1ccc(C#Cc2ccc(C(=O)N[C@@H](CO)C(=O)NO)cc2)cc1 [Compound 153]	12.5 (≈ 29.4 µM)	12.5 (≈ 29.4 µM)	1.6 (≈ 3.76 µM)	6.3 (≈ 14.8 µM)	25 (≈ 58.8 µM)	0.8 (≈ 1.88 µM)	6.3 (≈ 14.8 µM)	25 (≈ 58.8 µM)	≤ 0.1	25 (≈ 58.8 µM)
CSC(C)(C)[C@H](NC(=O)c1ccc(C#Cc2ccc(CNCc3ccc(C)cc3)cc2)cc1)C(=O)NO [Compound 252]	1.6 (≈ 3.1 µM)	1.6 (≈ 3.1 µM)	0.4 (≈ 0.776 µM)	0.4 (≈ 0.776 µM)	1.6 (≈ 3.1 µM)	0.8 (≈ 1.55 µM)	0.8 (≈ 1.55 µM)	3.1 (≈ 6.01 µM)	0.4 (≈ 0.776 µM)	3.1 (≈ 6.01 µM)
CSC(C)(C)[C@H](NC(=O)c1ccc(C#Cc2ccc(CNC3CC3)nc2)cc1)C(=O)NO [Compound 335]	0.4 (≈ 0.884 µM)	0.4 (≈ 0.884 µM)	0.4 (≈ 0.884 µM)	≤ 0.1	0.8 (≈ 1.77 µM)	0.2 (≈ 0.442 µM)	0.4 (≈ 0.884 µM)	3.1 (≈ 6.85 µM)	≤ 0.1	0.8 (≈ 1.77 µM)
